The values below come from ChEMBL document CHEMBL3608308, “Design, synthesis and antiproliferative activity of novel heterobivalent hybrids based on imidazo[2,1-b][1,3,4]thiadiazole and imidazo[2,1-b][1,3]thiazole scaffolds” (Eur J Med Chem, 2015).

pIC50: −log10 of the molar value. Bounds are passed on as bounds.

Usually pIC50 stands for the negative decadic logarithm of the IC50, by convention in mol/L.

Holding throughout (type): functional
One assay relates to L1210. As to the kind of experiment: Antiproliferative activity against mouse L1210 cells assessed as inhibition of cell proliferation incubated for 2 days by Coulter counter based assay. The conditions noted are these: L1210, 48 h.
For the next assay, the system named is FM3A. The assay is described as follows: Antiproliferative activity against mouse FM3A cells assessed as inhibition of cell proliferation incubated for 2 days by Coulter counter based assay. The conditions noted are these: 48 h.
A further assay has as its system CCRF-CEM. As to the kind of experiment: Antiproliferative activity against human CEM cells assessed as inhibition of cell proliferation incubated for 3 days by Coulter counter based assay. The note with it: 72 h.
Another assay concerns HeLa. As to the kind of experiment: Antiproliferative activity against human HeLa cells assessed as inhibition of cell proliferation incubated for 4 days by Coulter counter based assay. The conditions noted are these: 96 h.

`Nc1cccc(-c2cn3nc(Cc4ccc(Cl)cc4)sc3n2)c1`: the pIC50 in the assay with L1210 is 4.80; in the assay on FM3A it was 5.22; in the assay with CCRF-CEM, 4.38; in the assay with HeLa it was 4.60.
As to `Nc1cccc(-c2cn3nc(-c4ccccc4)sc3n2)c1`, the pIC50 in the assay with L1210 is 4.49; in the assay on FM3A, 4.85; in the assay on CCRF-CEM, 4.48; in the assay on HeLa, 4.59.
With `Nc1cccc(-c2cn3nc(-c4ccc(F)cc4)sc3n2)c1`, the pIC50 is ≤ 3.60 in the assay on L1210, 4.48 in the assay with FM3A, ≤ 3.60 in the assay on CCRF-CEM and ≤ 3.60 with HeLa.
For `C=C(Br)C(=O)Nc1cccc(-c2cn3nc(-c4ccc(OC)cc4)sc3n2)c1`, the pIC50 in the assay on L1210 is 6.03; in the assay with FM3A, 6.05; with CCRF-CEM it was 5.92; in the assay with HeLa, 5.64.
As for `C=C(Br)C(=O)Nc1cccc(-c2cn3c(-c4ccc(Cl)cc4)csc3n2)c1`, the pIC50 in the assay with L1210 was 5.72; in the assay on FM3A, 5.96; in the assay with CCRF-CEM, 5.66; with HeLa it was 5.52.
In the same order, the values of `C=C(Br)C(=O)Nc1cccc(-c2cn3c(-c4ccccc4)csc3n2)c1` are 5.89, 5.89, 5.55 and 5.47.
Turning to `COc1cccc(-c2nn3cc(-c4cccc(N)c4)nc3s2)c1`, the pIC50 with L1210 is < 3.60; in the assay on FM3A it was 4.54; in the assay on CCRF-CEM, < 3.60; with HeLa, 3.64.
Regarding `COc1ccc(Cc2nn3cc(-c4cccc(N)c4)nc3s2)cc1`, the pIC50 was 3.64 with L1210, 4.00 with FM3A, ≤ 3.60 in the assay with CCRF-CEM and 3.72 with HeLa.
In the case of `C=C(Br)C(=O)Nc1cccc(-c2cn3nc(Cc4cccc(OC)c4)sc3n2)c1`, the pIC50 is 5.70 in the assay on L1210, 5.96 in the assay with FM3A, 5.51 in the assay with CCRF-CEM and 5.60 in the assay on HeLa.
As for `CCOc1ccc(-c2nn3cc(-c4cccc(N)c4)nc3s2)cc1`, the negative-log IC50 (pIC50) in the assay with L1210 was 3.81; in the assay with FM3A, ≤ 3.60; in the assay with CCRF-CEM it was < 3.60; in the assay on HeLa, 4.03.
On to `C=C(Br)C(=O)Nc1cccc(-c2cn3nc(Cc4ccc(Cl)cc4)sc3n2)c1`, for which the pIC50 in the assay with L1210 is 5.64; with FM3A it was 5.96; with CCRF-CEM, 5.48; in the assay with HeLa, 5.57.
In the case of `C=C(Br)C(=O)Nc1cccc(-c2cn3nc(-c4cccc(OC)c4)sc3n2)c1`, the pIC50 with L1210 was 6.24; in the assay on FM3A, 6.30; in the assay on CCRF-CEM, 5.92; with HeLa it was 5.96.
Turning to `Nc1cccc(-c2cn3nc(-c4cccs4)sc3n2)c1`, the pIC50 in the assay with L1210, in the assay with FM3A, in the assay on CCRF-CEM and in the assay on HeLa was < 3.60 throughout.
As for `C=C(Br)C(=O)Nc1cccc(-c2cn3nc(-c4ccc(OCC)cc4)sc3n2)c1`, the pIC50 in the assay on L1210 was 6.10; in the assay with FM3A it was 5.96; in the assay with CCRF-CEM, 5.85; in the assay on HeLa, 5.96.
As for `C=C(Br)C(=O)Nc1cccc(-c2cn3nc(Cc4ccccc4)sc3n2)c1`, the pIC50 was 5.52 in the assay on L1210, 5.52 in the assay on FM3A, 5.38 in the assay with CCRF-CEM and 5.35 in the assay with HeLa.
In the case of `COc1ccc(-c2nn3cc(-c4cccc(N)c4)nc3s2)cc1`, the pIC50 in the assay with L1210 was ≤ 3.60; in the assay on FM3A it was 4.13; in the assay on CCRF-CEM, ≤ 3.60; with HeLa, ≤ 3.60.
As for `C=C(Br)C(=O)Nc1cccc(-c2cn3nc(-c4ccc(CC)cc4)sc3n2)c1`, the pIC50 in the assay with L1210 was 5.66; in the assay on FM3A it was 5.48; with CCRF-CEM it was 5.47; with HeLa, 5.49.
For `COc1ccc(-c2csc3nc(-c4cccc(N)c4)cn23)cc1`, in that order: 4.72, 4.96, 5.21 and 4.72.
With `C=C(Br)C(=O)Nc1cccc(-c2cn3nc(-c4ccc(C)cc4)sc3n2)c1`, the pIC50 in the assay with L1210 is 6.04; in the assay on FM3A it was 5.92; in the assay on CCRF-CEM it was 5.77; in the assay on HeLa, 5.70.
`CCc1ccc(-c2nn3cc(-c4cccc(N)c4)nc3s2)cc1`: the pIC50 is 5.22 in the assay with L1210, 5.09 in the assay with FM3A, 4.66 in the assay on CCRF-CEM and 5.09 in the assay with HeLa.
In the case of `Nc1cccc(-c2cn3nc(CCc4ccccc4)sc3n2)c1`, the pIC50 in the assay with L1210 was 4.51; in the assay with FM3A, 4.54; with CCRF-CEM, 4.52; in the assay with HeLa, 3.62.
In the same order, the values of `Nc1cccc(-c2cn3nc(Cc4ccccc4)sc3n2)c1` are 5.13, 5.33, 4.43 and 4.62.
For `C=C(Br)C(=O)Nc1cccc(-c2cn3nc(-c4ccc(Cl)cc4)sc3n2)c1`, in that order: 5.85, 5.70, 5.49 and 5.52.
As to `Nc1cccc(-c2cn3nc(-c4ccc(Cl)cc4)sc3n2)c1`, the pIC50 is ≤ 3.60 in the assay with L1210, 3.80 with FM3A, < 3.60 in the assay with CCRF-CEM and 3.80 in the assay on HeLa.
For `C=C(Br)C(=O)Nc1cccc(-c2cn3nc(-c4ccccc4)sc3n2)c1`, the pIC50 is 6.22 in the assay on L1210, 6.05 with FM3A, 6.02 in the assay on CCRF-CEM and 5.85 in the assay on HeLa.
In the same order, the values of `Nc1cccc(-c2cn3c(-c4ccccc4)csc3n2)c1` are 4.07, 4.47, 4.54 and 4.22.
In the same order, the values of `Nc1cccc(-c2cn3c(-c4ccc(Cl)cc4)csc3n2)c1` are 4.66, 4.96, 4.68 and 4.77.
`COc1cccc(Cc2nn3cc(-c4cccc(N)c4)nc3s2)c1`: the pIC50 is 4.68 in the assay on L1210, 5.00 with FM3A, 4.40 in the assay with CCRF-CEM and 4.62 with HeLa.
For `C=C(Br)C(=O)Nc1cccc(-c2cn3nc(Cc4ccc(OC)cc4)sc3n2)c1`, in that order: 5.85, 6.07, 5.64 and 5.64.
In the case of `Cc1ccc(-c2nn3cc(-c4cccc(N)c4)nc3s2)cc1`, the pIC50 in the assay with L1210 is 5.32; in the assay with FM3A it was 5.24; with CCRF-CEM, 5.23; with HeLa, 5.05.
`C=C(Br)C(=O)Nc1cccc(-c2cn3nc(CCc4ccccc4)sc3n2)c1`: the pIC50 in the assay with L1210 was 5.66; with FM3A, 5.59; in the assay with CCRF-CEM, 5.38; in the assay on HeLa, 5.48.
`COc1ccc(-c2nn3cc(-c4cccc(N)c4)nc3s2)cc1OC`: the pIC50 is 4.80 with L1210, 4.89 in the assay on FM3A, 4.85 in the assay with CCRF-CEM and 4.59 in the assay with HeLa.
